From US12576057B2, “Antibacterial and biofilm formation-inhibiting composition containing myristoleic acid as active ingredient” (RESEARCH COOPERATION FOUNDATION OF YEUNGNAM UNIVERSITY, priority 2020, dated 2026)
Values after ≈ are worked out from the molar mass of the structure shown. Like-named read-outs stand apart in the source and are kept apart here.

How the values were obtained:
[1] = system: C. acnes ATCC 6919; assay: Planktonic cell growth and MIC identification; format: cell-based, Cutibacterium acnes; settings: for MIC: after 96 hours of culture
Procedure: 2. Measurement of Planktonic Cell Growth and MIC Identification In order to identify the effect of fatty acids on the planktonic growth of C. acnes, a culture cultured for 96 hours in a 96-well plate was re-transplanted after undergoing dilution in a ratio of 1:50 and then treated with fatty acids of different concentrations. Plates were cultured under anaerobic condition at 37° C. and maintained using an anaerobic pouch (Fisher Scientific, Pittsburgh, USA). After 96 hours of culture, cell turbidity was checked at 600 nm using Optizen 2120UV spectrophotometer ([…] Co. Ltd., Daejeon, Korea).

[2] = system: C. acnes ATCC 6919; assay: Quantification of extracellular polymeric substance (EPS); format: cell-based, Cutibacterium acnes; settings: 10 μg/ml, 96 h culture
Procedure: 6. Quantification of Extracellular Polymeric Substance (EPS)
For EPS quantification, C. acnes treated with control and myristoleic acid was cultured at 37° C. for 96 hours. After culture, the culture was centrifuged at 8,228×g for 10 minutes, and the supernatant was separated.
The cell pellet was washed with sterile PBS to remove the culture supernatant which is free of residual cells. 15 ml of an isotonic solution (10 mM Tris/HCl, pH 8.0, 10 mM EDTA, 2.5% NaCl) was added to the cell pellet, and the mixed wells were culture at 4° C. overnight.
After overnight culture, the cell suspension was shaken to be mixed for 5 minutes, followed by centrifugation at 8,228×g for 10 minutes. The supernatant containing EPS bound with the cells was separated from the cells. Cold ethanol was added to the supernatant in a ratio of 1:3 and left at −20° C. overnight.
After collecting the precipitated EPS by centrifugation at 4° C., 18,514×g for 30 minutes, the pellet was washed with 70% ethanol and dried. The dried EPS was weighed, and inhibition of EPS production by fatty acids was calculated by the following formula (Sivasankar et al., 2016). ([Control wt−Treated wt/Control wt]×100) 7. Hydrophobicity Analysis: Microbial Adherence to Hydrocarbon (MATH)

[3] = system: C. acnes ATCC 6919; assay: Crystal violet biofilm formation assay, C. acnes ATCC 6919; format: cell-based, Cutibacterium acnes; settings: for inhibition at 20 µg/mL / inhibition at 1 µg/mL: Cutibacterium acnes, ATCC6919, 96 h; for inhibition at 20 µg/mL / change in biofilm formation: 20 μg/ml; for inhibition at 20 µg/mL: 96 h culture in RCM, 96-well plate; for inhibition at 1 µg/mL: 1 μg/ml, 96 h, 96-well polystyrene plate, read-out: inhibitory effect on biofilm formation; for change in biofilm formation: 96 h culture
Procedure: 3. Crystal Violet Film Assay
Crystal violet assay was performed by the previously reported method (Lee et al., 2017b) to quantify biofilm formation.
To quantify the biofilm, planktonic growth was eliminated, the plate was washed three times with distilled water, and the biofilm attached to the well was stained with 0.1% crystal violet for 20 minutes. Thereafter, the plate was washed three times with sterile distilled water, and crystal violet was extracted using 95% ethanol, absorbance was measured at 570 nm using Multiskan EX microplate reader (Thermo Fisher Scientific, Waltham, MA), and the result was shown as an average value of at least 12 replicate wells.
Percentage for inhibition rate represents relative biofilm formation (100×biofilm formation with chemical/biofilm formation of untreated control).

[4] = system: C. acnes; settings: after 72 hours, previous report; cited from earlier work
[5] = system: S. aureus ATCC 6538; assay: Biofilm formation of S. aureus ATCC 6538; format: cell-based, Staphylococcus aureus
From the text: (§1) The antibacterial and anti-biofilm activity of myristoleic acid against five Staphylococcus aureus strains was identified, including two methicillin-sensitive S. aureus strains (MSSA; ATCC 25923 and ATCC 6538), two methicillin-resistant S. aureus strains (MRSA, MW2, and ATCC 33591), and S. epidermidis strains.

[6] = system: C. acnes ATCC 6919; assay: Rapid killing (time-kill) experiment; format: cell-based, Cutibacterium acnes; settings: 100 μg/ml
Procedure: 4. Analysis of Rapid Killing of Acne Bacteria Using Fatty Acids To determine the killing time by fatty acids, a time-kill experiment was performed. Briefly, cultures of C. acnes ATCC 6919 grown in RCM broth (BD Difco™, Fisher Scientific, Pittsburgh, USA) at 37° C. under anaerobic conditions for 96 hours were diluted in a ratio of 1:50 with fresh RCM medium. The samples were treated with myristoleic acid (50 and 100 μg/ml) or lauric acid (50 and 100 μg/ml) and cultured at 37° C. under anaerobic conditions while stirring. At each time point, aliquots of treated cells were collected, and after performing appropriate dilutions, cells were smeared on RCM agar plates and incubated at 37° C. for 96 hours, followed by enumeration of CFUs, wherein each experiment was repeated.

[7] = system: C. acnes ATCC 6919; assay: Hydrophobicity analysis: microbial adherence to hydrocarbon (MATH); format: cell-based, Cutibacterium acnes; settings: for change of cell hydrophobicity: 10 and 20 μg/ml fatty acids, 96 h
Procedure: MATH analysis (Rosenberg et al., 1980) was performed to identify the effect of fatty acids on the attachability of C. acnes to hydrocarbons (toluene) and the cell surface hydrophobicity of C. acnes.
C. acnes were grown without fatty acids for 96 hours under anaerobic conditions at 37° C.
The OD values of all treated and untreated cultures were adjusted to OD 0.5±0.05, and an equal volume of toluene was added to 3 ml of the cell suspension, followed by stirring for 60 seconds.
After stirring, incubation of an aqueous solution was performed overnight at room temperature to completely remove the trace solvent. OD600 in the aqueous solution was observed and cell surface hydrophobicity (CSH) was evaluated by hydrophobicity index (HI) using the following formula. (HI=[1−(OD600 after vortexing/OD600 before vortexing)]×100) (Mattos-Guaraldi et al., 1999). 8. Identification of Anti-Viral Effect and Cytotoxicity of Myristoleic Acid in Nematode Model

[8] = system: uninfected C. elegans; assay: Chemical toxicity in uninfected C. elegans; format: in vivo; settings: increased to 500 μg/ml for 5 days, uninfected nematodes
Procedure: The toxicity of myristoleic acid was identified in […].
[…] was treated with myristoleic acid with various doses, and survival was checked every day for 5 consecutive days.
In addition, in order to identify the chemical toxicity of myristoleic acid, uninfected nematodes were exposed to different concentrations of myristoleic acid.

[9] = system: C. acnes; assay: Scanning electron microscopy of biofilm / EPS; format: cell-based, Cutibacterium acnes; settings: 10 μg/ml
Procedure: 5. Scanning Electron Microscopy
Production of extracellular polymeric substance (EPS) was detected by electron microscopy (SEM) by the previously reported method (Lee et al., 2011).
Briefly, C. acnes cells were inoculated in 96-well plates under conditions with or without fatty acids, and a nylon filter (0.4×0.4 mm square) was added to each well. Biofilms were grown on the nylon filters by culturing together for 96 hours without stirring under anaerobic conditions at 37° C.
Then, the biofilm cells on the piece of nylon filter were immobilized with 2.5% glutaraldehyde and 2% formaldehyde for 24 hours and sequentially immobilized with osmium tetroxide, followed by dehydration with ethanol series (50, 70, 80, 90, 95 and 100%) and isoamyl acetate.
After critical point drying, the cells on the filter were stopper-coated with to palladium/gold, and observed under an S-4100 scanning electron microscope (Hitachi, Tokyo, Japan) at a magnification of ×1000 to ×10,000 using an acceleration voltage of 15 kV.

[10] = system: S. aureus ATCC 6538, S. aureus ATCC 25923, MRSA MW2, MRSA ATCC 33591, S. epidermidis ATCC 14990; assay: Biofilm formation of five Staphylococcus strains; format: cell-based, Staphylococcus aureus, Staphylococcus epidermidis
From the text: as §1

[11] = system: C. elegans infected with C. acnes ATCC 6919; assay: C. elegans killing assay with C. acnes infection; format: in vivo; settings: 10 μg/ml, 4 days; 20% survived without treatment
Procedure: C. elegans killing assay was performed with a slight modification of the previously reported method (Beceiro et al., 2014). Briefly, assays were performed in 96-well plates.
Young adult nematodes (20-30) [fer-15(b26);fem-1(hc17)] were transferred to each well contained in an M9 solution. The untreated control and fatty acid-treated C. acnes cells were each added to separate wells containing 20 to 30 nematodes and incubated at 25° C.
Nematodes solely exposed to E. coli OP50 at CFU of 1×10^6 cells/ml were used as a control.
Viability was identified by exposing to LED or UV LED light for 10 to 30 seconds using the iRiS™ Digital Cell Imaging System (Logos BioSystems, South Korea) by the previously reported method (Rajasekharan et al., 2018). The experiments were repeated three times.

[12] = system: Staphylococcus strains; assay: MIC against Staphylococcus strains; format: cell-based, Staphylococcus aureus
From the text: as §1

[13] = Cutibacterium acnes, ATCC6919, 96 h, read-out: MIC

SMILES	EPS production [2]	inhibition at 20 µg/mL [3] [%]	change of cell hydrophobicity [7]	also measured
CCCCCCCCCC(=O)O [decanoic acid]	no significant changes	> 60		MIC [1, 13]: 20 to 200 µg/mL (≈ 116 to 1160 µM)
CCCCCCCCCCCC(=O)O [lauric acid, reference compound]	significant reduction in EPS production		reduced cell hydrophobicity the most	MIC [4]: 60 µg/mL (≈ 300 µM); anti-biofilm activity [5]: weak anti-biofilm activity; killing of C. acnes cells [6]: did not effectively kill; inhibition at 1 µg/mL [3]: ≥ 80%
CCCCCCCCC(=O)O [nonanoic acid]		> 60		
CCCCC(=O)O [valeric acid, pentanoic acid]				change in biofilm formation [3]: very subtle changes in biofilm formation
CCCCCCC(=O)O [heptanoic acid]	no significant changes			change in biofilm formation [3]: very subtle changes in biofilm formation
CCCCCCCCCCCCCC(=O)O [myristic acid]		> 60		
CCCCCCCCCCC(=O)O [undecanoic acid]	significant reduction in EPS production	> 60		MIC [1, 13]: 20 to 200 µg/mL (≈ 107 to 1070 µM)
CCCCCCCCCCCCCCCCC(=O)O [heptadecanoic acid]		> 60	a little change in hydrophobicity	
CCCCCCCCCCCCCCCCCCCCCCC(=O)O [trichoic acid, tricosanoic acid]	no significant changes	> 60	a little change in hydrophobicity	
CCCCCCCC/C=C\CCCCCCCC(=O)O [oleic acid]		> 60		
CCCCCCCCCCCCCCCCCC(=O)O [stearic acid]	no significant changes	> 60	a little change in hydrophobicity	
CCCCCCCCCCCCCCCC(=O)O [palmitic acid]		> 60		
CCCCCCCC/C=C\CCCCCCCCCCCC(=O)O [erucic acid]		> 60		
CCCC/C=C\CCCCCCCC(=O)O [myristoleic acid]	significant reduction in EPS production		reduced cell hydrophobicity the most	C. acnes cells killed ([6]; in 1 hour): ≥ 99.999%; hydrophobicity index (cells made hydrophilic) ([7]; 10 μg/ml): > 20%; dose-dependent effect on hydrophobicity ([7]; 5, 10, 15, or 20 μg/ml): clear-cut decrease in hydrophobicity in a dose-dependent manner; toxicity to C. elegans [8]: did not show toxicity; MIC of myristoleic acid relative to lauric acid (times lower) ([1]; 20 μg/ml vs 100 μg/ml): 5 times; MIC [1, 13]: 20 to 200 µg/mL (≈ 88.4 to 884 µM); MIC [1]: 20 µg/mL (≈ 88.4 µM); planktonic cell growth ([1]; increased to 10 μg/ml): did not reduce planktonic cell growth; EPS production by SEM analysis [9]: reduction in EPS production; anti-biofilm activity ([10]; 5 Staphylococcus strains): strong anti-biofilm activity; inhibition at 50 µg/mL ([10]; ALL5, 50 μg/ml, all 5 strains, read-out: biofilm formation inhibitory effect): > 90%; survival of C. elegans infected with C. acnes [11]: 70%; MIC [12]: 150 µg/mL (≈ 663 µM); C. acnes biofilm formation ([3]; <10 μg/ml): significantly inhibited; inhibition at 1 µg/mL [3]: ≥ 80%
CC/C=C\C/C=C\C/C=C\CCCCCCCC(=O)O [linolenic acid]		> 60		
CCCCCC/C=C\CCCCCCCC(=O)O [cis-9-hexadecenoic acid, cis-9 hexadecenoic acid]	no significant changes		a little change in hydrophobicity	change in biofilm formation [3]: very subtle changes in biofilm formation
CCCCC/C=C\C/C=C\CCCCCCCC(=O)O [linoleic acid]		> 60	reduced cell hydrophobicity the most	
CCCCC/C=C\C/C=C\C/C=C\C/C=C\CCCC(=O)O [arachidonic acid]		> 60		
